Measurements taken from patent publication US20220265814A1, “R[…] FOR CORONA VIRUS DISEASE 19 AND COMBINATION THERAPY USING THE SAME” (priority 2021, published 2022).

Experiments:
Format in all cases: cell-based
[1] = system: recombinant adenovirus (GFP tagging); assay: antiviral activity against recombinant adenovirus (GFP fluorescence intensity) in HEK293A cells; conditions: for inhibition at 50 µM: unidentified adenovirus, HEK293-A, 72 h, read-out: virus inhibitory activity
Protocol: (§1) After dispensing HEK293A cells at 10,000 cells/well on a 96-well plate and stabilizing for 24 hours, the recombinant adenovirus (GFP tagging, MOI=0.5) prepared in Example and 18 compounds listed in Table 1 below (50 μM)) were treated and incubated for 24, 48 and 72 hours, the GFP fluorescence intensity (Excitation=485 nm, Emission=528 nm) was observed.

[2] = system: HEK293A cells; assay: cell death / cytotoxicity in compound-treated HEK293A cells; conditions: 50 μM compound, after 72 hours of treatment
[3] = system: Herpes simplex virus (HSV); assay: antiviral activity against herpes simplex virus (HSV), same manner as the adenovirus test; conditions: 50 μM, after 24 hours, 48 hours and 72 hours (FIG. 14)
Protocol: as §1
The experiment was performed in the same manner as in the previous experiment, except that the virus type was changed to HSV and the antiviral activity was examined.

[4] = system: COVID-19 virus (COVID19 recombinant adenovirus); assay: COVID19 antibody-antigen polymerization reaction on combination treatment with ECCA A (Cyto X cell viability)

| Compound | inhibition at 50 µM [1] [%] | virus inhibitory activity (in words) ([1]; 50 μM compound, HEK293A cells, recombinant adenovirus MOI=0.5) | cell death [2] [%] | antiviral activity on adenovirus, compared among C2, C6, C8 and C10 ([1]; 50 μM, after 24 hours, 48 hours and 72 hours (FIG. 13)) | antiviral activity on HSV [3] | antigen-antibody polymerization reaction [4] | binding to the antigen fusion protein [4] |
| --- | --- | --- | --- | --- | --- | --- | --- |
| C=C(C)[C@@H]1CC[C@]2(C(=O)O)CC[C@]3(C)[C@H](CC[C@@H]4[C@@]5(C)[C@@H](C(=O)O)[C@H](O)C(C)(C)[C@@H]5CC[C@]43C)[C@@H]12 [Compound C2, Ceanothic acid] | ≥ 50 | – | – | – | – | – | – |
| C=C(C)[C@@H]1CC[C@]2(C(=O)O)CC[C@]3(C)[C@H](CC[C@@H]4[C@@]5(C)C[C@@H](OC(=O)/C=C/c6ccc(O)cc6)[C@H](O)C(C)(C)[C@@H]5CC[C@]43C)[C@@H]12 [Compound C4, 2-O-E-p-coumaroyl alphitolic acid] | – | excellent virus inhibitory activity | 100 | – | – | – | – |
| C=C(C)[C@@H]1CC[C@]2(C(=O)O)CC[C@]3(C)[C@H](CC[C@@H]4[C@@]5(C)CC[C@H](O)C(C)(C)[C@@H]5CC[C@]43C)[C@@H]12 [Compound C10, ECCA A] | ≥ 50 | – | – | most excellent | most excellent | effective antigen-antibody polymerization reaction was confirmed | excellent |
